Measurements reported in the SangsterLogP compilation.

logP	Structure (SMILES)
1.84	CNC12CCC(CN)CC1Cc1ccccc12 (stereo not given)
3.77	CNC12CCCCCC1Cc1ccccc12 (stereo not given)
1.41	CNC12CCC(CO)CC1Cc1ccccc12 (stereo not given)
2.48	CNCC1CCC2(NC)c3ccccc3CC2C1 (stereo not given)
0.93	NC12CCC(CO)CC1Cc1ccccc12 (stereo not given)
3.51	CNC12CCCCC1Cc1cc(OC)ccc12 (stereo not given)
3.8	CCNC12c3ccccc3CC1CCCC2C (stereo not given)
3.44	CNC12c3ccccc3CC1CCCC2C (stereo not given)

The next lines start with the compound.

Structure (SMILES)	logP
NC12CCCC1Cc1ccccc12 (stereo not given)	2.58
C=C1c2ccccc2C2(NC)CCCCC12 (stereo not given)	3.79
CNC12CCCCC1Cc1ccccc12 (stereo not given)	3.37
CNC12CCCCC1c1ccccc1C2 (stereo not given)	3.43
CNC12CCCCC1Cc1ccc(OC)cc12 (stereo not given)	3.54
CNC12CC=CCC1c1ccccc1C2 (stereo not given)	3.28
NC12CCCCC1c1ccccc1C2 (stereo not given)	2.94
